For this assay, the system named is BDF1 mice, B16 melanoma ip, median survival T/C. The assay can be described thus: NCI In Vivo Anticancer Drug Screen. Data for tumor model B16 Melanoma (intraperitoneal) in B6D2F1 (BDF1) mice. As to conditions: endpoint: median survival time, higher = longer survival. The method in brief: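 Vehicle-treated animals serve as the reference (C); treated animals (T) are scored for survival or tumor size after tumor transplantation.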

[1] abbreviates: dose: 12.5 mg/kg/injection, schedule: Q01DX009 (ip), vehicle: Klucel (hydroxypropylcellulose) (HPC).
Setting [2] is: dose: 25.0 mg/kg/injection, schedule: Q01DX009 (ip), vehicle: Klucel (hydroxypropylcellulose) (HPC).
Where [3] appears, read: dose: 50.0 mg/kg/injection, schedule: Q01DX009 (ip), vehicle: saline with Tween-80.
[4] abbreviates: dose: 100.0 mg/kg/injection, schedule: Q01DX009 (ip), vehicle: saline with Tween-80.
Setting [5] is: dose: 12.5 mg/kg/injection, schedule: Q01DX009 (ip), vehicle: saline with Tween-80.
Where [6] appears, read: dose: 25.0 mg/kg/injection, schedule: Q01DX009 (ip), vehicle: saline with Tween-80.
The mark [7] stands for this setting: dose: 6.25 mg/kg/injection, schedule: Q01DX009 (ip), vehicle: saline with Tween-80.
[8] abbreviates: dose: 200.0 mg/kg/injection, schedule: Q01DX009 (ip), vehicle: saline with Tween-80.
Where [9] appears, read: dose: 6.25 mg/kg/injection, schedule: Q01DX009 (ip), vehicle: water.
[10] abbreviates: dose: 12.5 mg/kg/injection, schedule: Q01DX009 (ip), vehicle: water.
Where [11] appears, read: dose: 25.0 mg/kg/injection, schedule: Q01DX009 (ip), vehicle: water.

Drawing on PubChem BioAssay AID192 (DTP/NCI, 2004), this text covers T/C for 26 molecules.

Where “and” joins values, the source holds several entries; their conditions need not be identical. Equal values may be shown once. Inconclusive results and toxic doses are left out.

For `CCN(C(=O)CCl)C(C)(C)C(SSSC(c1ccc(Cl)cc1)C(C)(C)N(CC)C(=O)CCl)c1ccc(Cl)cc1` (stereo unspecified), the T/C is, setting by setting: under setting [1], 100 % of control; under setting [2], 98 % of control.

In the case of `Cc1nc(-c2ccccc2)nc2c1CCO2`, the T/C was 92 % of control (dose: 33.0 mg/kg/injection, schedule: Q01DX009 (ip), vehicle: saline with Tween-80); 93 % of control under setting [3]; 89 % of control (dose: 75.0 mg/kg/injection, schedule: Q01DX009 (ip), vehicle: saline with Tween-80); 122 % of control under setting [4].

`O=[N+]([O-])c1cc([N+](=O)[O-])c(Nn2c3ccccc3c3ccccc32)c([N+](=O)[O-])c1`: the T/C was 86 % of control under setting [5], 88 % of control under setting [6] and 93 % of control under setting [3].

For `Nc1nc(F)nc2nc[nH]c12`, the T/C was 88 % of control and 109 % of control (dose: 5.0 mg/kg/injection, schedule: Q01DX009 (ip), vehicle: Klucel (hydroxypropylcellulose) (HPC)); 90 % of control and 118 % of control (dose: 10.0 mg/kg/injection, schedule: Q01DX009 (ip), vehicle: Klucel (hydroxypropylcellulose) (HPC)); 95 % of control and 122 % of control (dose: 20.0 mg/kg/injection, schedule: Q01DX009 (ip), vehicle: Klucel (hydroxypropylcellulose) (HPC)).

For the molecule `O=C(COc1ccccc1)CC(O)(C(F)(F)F)C(F)(F)F`, the T/C by setting is: (dose: 100.0 mg/kg/injection, schedule: Q04DX003 (ip), vehicle: saline with Tween-80) 100 % of control; (dose: 200.0 mg/kg/injection, schedule: Q04DX003 (ip), vehicle: saline with Tween-80) 92 % of control; (dose: 400.0 mg/kg/injection, schedule: Q04DX003 (ip), vehicle: saline with Tween-80) 97 % of control.

`Cc1ccc(NC(=O)Oc2ccc(Br)cc2Br)c([N+](=O)[O-])c1`: the T/C under setting [5] was 97 % of control, the T/C under setting [6] was 92 % of control and the T/C under setting [3] is 86 % of control.

Consider `CC[C@]12CN3CCc4c([nH]c5ccccc45)[C@@](C(=O)OC)(c4cc5c(cc4OC)N(C=O)[C@H]4[C@@](O)(C(=O)OC)[C@H](OC(C)=O)[C@]6(CC)C=CCN7CC[C@]54[C@@H]76)C[C@H](C3)[C@H]1O2`, for which, for the setting “dose: 4.0 mg/kg/injection, schedule: Q01DX011 (ip), vehicle: saline”, the T/C is 159 % of control.

Consider `C=CCOCC(O)CN(CC(C)C)CC(C)C` (stereo unspecified), for which the T/C was 98 % of control (dose: 6.25 mg/kg/injection, schedule: Q01DX009 (ip), vehicle: Klucel (hydroxypropylcellulose) (HPC)); 104 % of control under setting [1]; 100 % of control under setting [2].

In the case of `c1ccc([P+](C[P+](c2ccccc2)(c2ccccc2)c2ccccc2)(c2ccccc2)c2ccccc2)cc1`, the T/C is, setting by setting: (dose: 0.75 mg/kg/injection, schedule: Q01DX009 (ip), vehicle: saline) 87 % of control; (dose: 1.5 mg/kg/injection, schedule: Q01DX009 (ip), vehicle: saline) 93 % of control.

Take `CCCCCCCCCCCCCCCCCCCCCC(=O)Nc1ccn(C2OC(CO)C(O)C2O)c(=O)n1` (stereo unspecified): the T/C runs as follows: under setting [7], 102 % of control; under setting [5], 102 % of control; under setting [6], 119 % of control; under setting [8], 163 % of control.

In the case of `CC(c1ccccc1)N1C(=O)CSC1=S` (stereo unspecified), the T/C is 100 % of control under setting [6], 94 % of control under setting [3], 103 % of control under setting [4] and 101 % of control under setting [8].

Turning to `CC(=O)CC(=O)Nc1ccc(-c2ccc(NC(=O)CC(C)=O)c(Cl)c2)cc1Cl`, the T/C is 87 % of control (dose: 100.0 mg/kg/injection, schedule: Q01DX009 (ip), vehicle: Klucel (hydroxypropylcellulose) (HPC)) and 87 % of control (dose: 200.0 mg/kg/injection, schedule: Q01DX009 (ip), vehicle: Klucel (hydroxypropylcellulose) (HPC)).

Turning to `CN(Cc1cnc2nc(N)nc(N)c2n1)c1ccc(C(=O)NC(CCC(=O)O)C(=O)O)cc1Br` (stereo unspecified), the T/C (dose: 0.17 mg/kg/injection, schedule: Q01DX011 (ip), vehicle: saline) is 101 % of control; the T/C (dose: 0.35 mg/kg/injection, schedule: Q01DX011 (ip), vehicle: saline) was 105 % of control; the T/C (dose: 0.63 mg/kg/injection, schedule: Q01DX009 (ip), vehicle: other) was 101 % of control; the T/C (dose: 0.7 mg/kg/injection, schedule: Q01DX011 (ip), vehicle: saline) was 101 % of control; the T/C (dose: 1.25 mg/kg/injection, schedule: Q01DX009 (ip), vehicle: other) is 113 % of control.

Consider `CCCCNC(=O)Nc1ccc(C(=O)OCCCC)cc1`, for which the T/C reads like this: under setting [3], 96 % of control; under setting [4], 95 % of control; under setting [8], 93 % of control.

Regarding `Cc1ccc[n+](CCc2c[nH]c3ccccc23)c1`, the T/C reads like this: under setting [5], 111 % of control; under setting [6], 99 % of control; under setting [3], 95 % of control.

Turning to `CC(=O)NSCC(NC(=O)OC(C)(C)C)C(=O)O` (stereo unspecified), the T/C by setting is: (dose: 50.0 mg/kg/injection, schedule: Q01DX009 (ip), vehicle: saline) 100 % of control; (dose: 100.0 mg/kg/injection, schedule: Q01DX009 (ip), vehicle: saline) 101 % of control; (dose: 200.0 mg/kg/injection, schedule: Q01DX009 (ip), vehicle: saline) 96 % of control.

With `O=C(O)CNC(=O)c1ccc([N+](=O)[O-])cc1`, the T/C under setting [4] was 89 % of control.

Regarding `Nc1ncnc2c(C3OC(CO)C(O)C3O)[nH]nc12` (stereo unspecified), the T/C (dose: 1.0 mg/kg/injection, schedule: Q01DX009 (ip), vehicle: saline) is 113 % of control; the T/C (dose: 2.0 mg/kg/injection, schedule: Q01DX009 (ip), vehicle: saline) is 122 % of control; the T/C (dose: 4.0 mg/kg/injection, schedule: Q01DX009 (ip), vehicle: saline) is 122 % of control; the T/C (dose: 8.0 mg/kg/injection, schedule: Q01DX009 (ip), vehicle: saline) was 107 % of control.

Turning to `COC(=O)C1C2OC(C(Br)C2Br)C1C(=O)OC` (stereo unspecified), the T/C is 103 % of control (dose: 100.0 mg/kg/injection, schedule: Q04DX003 (ip), vehicle: Klucel (hydroxypropylcellulose) (HPC)); 105 % of control (dose: 200.0 mg/kg/injection, schedule: Q04DX003 (ip), vehicle: Klucel (hydroxypropylcellulose) (HPC)); 101 % of control (dose: 400.0 mg/kg/injection, schedule: Q04DX003 (ip), vehicle: Klucel (hydroxypropylcellulose) (HPC)).

In the case of `O=Cc1ccc([N+](=O)[O-])s1`, the T/C was 99 % of control (dose: 3.12 mg/kg/injection, schedule: Q01DX009 (ip), vehicle: saline with Tween-80); 96 % of control under setting [7]; 96 % of control under setting [5]; 86 % of control under setting [6].

For `NC(CNC(=O)CBr)C(=O)O` (stereo unspecified), the T/C under setting [9] is 109 % of control, the T/C under setting [10] was 104 % of control and the T/C under setting [11] is 122 % of control.

Consider `Cc1ccc(C2CC3c4ccccc4C2C2CCCCN32)cc1` (stereo unspecified), for which the T/C (dose: 0.78 mg/kg/injection, schedule: Q01DX009 (ip), vehicle: water) was 112 % of control; the T/C (dose: 1.56 mg/kg/injection, schedule: Q01DX009 (ip), vehicle: water) is 104 % of control; the T/C (dose: 3.13 mg/kg/injection, schedule: Q01DX009 (ip), vehicle: water) is 99 % of control and 115 % of control; the T/C under setting [9] was 107 % of control and 110 % of control; the T/C under setting [10] was 102 % of control; the T/C under setting [11] was 98 % of control.

`C=NCC#N`: the T/C under setting [4] is 93 % of control; the T/C under setting [8] was 88 % of control; the T/C (dose: 400.0 mg/kg/injection, schedule: Q01DX009 (ip), vehicle: saline with Tween-80) is 93 % of control.

With `C=C1C(=O)OC2CC3(C)CC(O)C(OC(C)=O)C(=C)C3CC12` (stereo unspecified), the T/C by setting is: (dose: 2.5 mg/kg/injection, schedule: Q01DX009 (ip), vehicle: saline) 109 % of control; (dose: 5.0 mg/kg/injection, schedule: Q01DX009 (ip), vehicle: saline) 104 % of control; (dose: 10.0 mg/kg/injection, schedule: Q01DX009 (ip), vehicle: saline) 106 % of control.

Turning to `CC1(C)COCN1COC1CCCCC1`, the T/C was 100 % of control under setting [5]; 105 % of control and 115 % of control under setting [6]; 105 % of control and 119 % of control under setting [3]; 110 % of control under setting [8].

For `Cc1ccc(Cl)cc1NC(=O)Nc1ccc(Cl)c(Cl)c1`, the T/C runs as follows: (dose: 75.0 mg/kg/injection, schedule: Q01DX009 (ip), vehicle: Klucel (hydroxypropylcellulose) (HPC)) 97 % of control; (dose: 150.0 mg/kg/injection, schedule: Q01DX009 (ip), vehicle: Klucel (hydroxypropylcellulose) (HPC)) 92 % of control.
